The values that follow come from PMC6271231 (Molecules, 2014).

pIC50: −log10 of the molar value. Entries after “also recorded” stand apart in the source; their conditions may differ. Bounds are passed on as bounds.

The target in this assay is NA of A/PR/8/34 (H1N1) (Influenza A virus, UniProt P03468). Briefly: biochemical. The class given is biochemical, influenza A virus A/PR/8/34 (H1N1).
NA of A/PR/8/34 (H1N1), sequence (P03468 whole entry): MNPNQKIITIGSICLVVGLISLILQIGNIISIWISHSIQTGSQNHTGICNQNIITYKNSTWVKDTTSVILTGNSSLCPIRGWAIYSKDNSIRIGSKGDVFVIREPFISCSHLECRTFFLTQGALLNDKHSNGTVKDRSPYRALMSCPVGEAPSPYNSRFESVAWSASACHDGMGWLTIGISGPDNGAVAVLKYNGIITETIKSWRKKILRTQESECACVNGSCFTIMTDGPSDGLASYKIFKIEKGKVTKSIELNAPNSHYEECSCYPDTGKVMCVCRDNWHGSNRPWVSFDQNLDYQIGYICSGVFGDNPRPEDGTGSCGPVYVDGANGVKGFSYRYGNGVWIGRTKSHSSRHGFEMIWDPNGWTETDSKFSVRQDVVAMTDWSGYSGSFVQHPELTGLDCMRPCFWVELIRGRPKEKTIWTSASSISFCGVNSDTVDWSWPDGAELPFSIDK

One may read the pIC50 as the negative decadic logarithm of the IC50, by convention in mol/L. A lower pIC50 goes with a large IC50. `O=C(Oc1cc(O)c2c(c1)OC(c1cc(O)c(O)c(O)c1)C(O)C2)c1cc(O)c(O)c(O)c1` (single isomer, unassigned; (+)) [Compound 3, (+)-3,5,3',4',5'-penta-hydroxyflavan-7-gallate] gave a pIC50 below 4.06.

As to `CC1(C)O[C@@H]2Cc3c(O)cc(OC(=O)c4cc(O)c(O)c(O)c4)cc3O[C@@H]2c2cc(O)c(O)c(O)c21` [Compound 1, (2R,3R)-7-O-galloylplumbocatechin A], the pIC50 is 4.22; the “inhibitory effect against influenza H1N1 virus neuraminidase (in words)” value was “higher inhibitory activities on NA from influenza H1N1 virus than on those from influenza H3N2 and B viruses; also recorded: moderate inhibitory effects; also recorded: best results”.

In the case of `O=C(Oc1cc(O)c2c(c1)O[C@H](c1cc(O)c(O)c(O)c1)CC2)c1cc(O)c(O)c(O)c1` [Compound 2, (−)-5,3',4',5'-tetrahydroxyflavan-7-gallate], the pIC50 is 4.08; the “inhibitory effect against influenza H1N1 virus neuraminidase (in words)” value was “higher inhibitory activities on NA from influenza H1N1 virus than on those from influenza H3N2 and B viruses; also recorded: moderate inhibitory effects”.

`O=C(Oc1cc(O)c2c(c1)O[C@H](c1cc(O)c(OC(=O)c3cc(O)c(O)c(O)c3)c(O)c1)CC2)c1cc(O)c(O)c(O)c1` [Compound 4, (−)-7,4'-di-O-galloyltricetiflavan]: the pIC50 is below 4.17.
